This passage reports Km and Vmax results from patent publication US4845029A, “Method for the determination of sarcosine creatine or creatinine” (Boehringer Mannheim GmbH, priority 1985, dated 1989).

Assay type in all cases: biochemical
In assay [1] the test system is known sarcosine oxidase from Bacillus sp. (comparison enzyme). Kind of assay: KM value for sarcosine in stressing reagent a. As to conditions: pH 7.9, detergent-containing. The protocol: (§1) The KM values for sarcosine (phosphate buffer; TES buffer), measured at 25° C. in various stressing reagents, are 2 to 3 mmol/litre. The Vmax is about 6 U/mg. protein. The followig Table I gives, for various preparations of the enzyme according to the present invention, the KM values for sarcosine measured at 25 and at 37° C. For comparison, there are given the corresponding values for the known Bacillus enzyme.
(§2) 0.15 mole potassium phosphate or 0.1 mole TES/KOH (pH 7.9), 8.6 mmole 2,4,6-tribromo-3-hydroxybenzoic acid, 0.8 mmole 4-aminoantipyrine, 10 μmole potassium ferrocyanide, 5 mmole sodium cholate, 0.5% Lutensol ON 50, 0.2% sodium azide, 0.5 mmole Titriplex III, 2000 U lipase, 2000 U peroxidase and 10000 U ascorbate oxidase, per liter. [Lutensol ON 50 ^R is obtained from BASF AG and is n-decanol-polyglycolether having an average of 5 ethylene glycol units per molecule i.e. CH3 -(CH2)9 -(OCH2 -CH2)5 -OH. Titriplex III is the disodium salt of ethylenediaminetetracetic acid and can be obtained from Merck.]

The subject of assay [2] is sarcosine oxidase (E.C. 1.5.3.1) from Chainia purpurogena (DSM 43 156), pure enzyme. Kind of assay: KM value for sarcosine in stressing reagent a. As to conditions: pH 7.9, detergent-containing. The protocol:
as §1, §2

For assay [3], the system named is sarcosine oxidase from Chainia purpurogena, crude extract supernatant. Kind of assay: KM value for sarcosine in stressing reagent a. As to conditions: 37 °C, pH 7.9, detergent-containing. The protocol:
as §1, §2

Assay [4] has as its system sarcosine oxidase from Streptomyces flocculus (DSM 40 327), crude extract supernatant. The assay is described as follows: KM value for sarcosine in stressing reagent a. As to conditions: 37 °C, TES buffer, pH 7.9, detergent-containing. The procedure: as §1, §2
Assay [5] has as its system sarcosine oxidase according to the present invention, obtainable from Streptomycetaceae. The assay is described as follows: KM and Vmax for sarcosine. Particulars: substrate sarcosine. The procedure: In contradistinction thereto, the KM values of the known sarcosine oxidases which are sufficiently stable for these determinations are, under these conditions, abou 16 to 20 mmol/liter.
as §1

`CNCC(=O)O` [sarcosine]: the Km in assay [1] (25 °C, TES buffer) was found to be 20 mM; in assay [1] (25 °C, phosphate buffer), 16 mM; in assay [1] (37 °C, TES buffer), 20 mM; in assay [1] (37 °C, phosphate buffer), 18 mM; in assay [2] (25 °C, TES buffer) it was 2.8 mM; in assay [2] (25 °C, phosphate buffer) it was 2 mM. The Km in assay [2] (37 °C, TES buffer) was determined as 3 mM; in assay [2] (37 °C, phosphate buffer) it was 3.5 mM; in assay [3] (TES buffer) it was 3 mM; in assay [3] (phosphate buffer) it was 3 mM; in assay [4], 3.5 mM. The Vmax result in assay [5] is listed as “about 6 U/mg. protein”.
